Where two headings read alike, the source gives them in different places.
Columns and labels:
Format in all cases: in vivo
[1] = system: redroot pigweed (Amaranthus retroflexus, AMARE); assay: Pre-emerge test, greenhouse herbicide activity screening; details: pre-emerge; for Pre-emerge Herbicidal Activity AMARE (phytotoxicity rating, scale 0-100): rated 14 days after application, 0 = no damage, 100 = complete death
Summary of the method: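 Plants grown in 10 cm pots of sandy loam mix received acetone-dissolved compounds through a moving flat-fan nozzle. Doses ranged from 15 to 1000 g ai/ha. Pre-emerge pots were seeded one day earlier, post-emerge pots 8–21 days earlier. Fourteen days on, each pot was graded 0–100 for damage.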

[2] = system: sicklepod (Cassia obtusifolia, CASOB); assay: Post-emerge test, greenhouse herbicide activity screening; details: Senna obtusifolia, post-emergence, 336 h, read-out: Post-emerge Herbicidal Activity CASOB; for pest or weed control at 63 g/ha: 63 g ai/ha; for pest or weed control at 250 g/ha: 250 g ai/ha
Summary of the method: (§1)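 Applied at 15–1000 g ai/ha from acetone in 187 l/ha spray volume. Post-emergence applications included 0.25% v/v non-ionic surfactant and reached plants sown 8–21 days before. Pre-emergence applications were incorporated by surface watering. Efficacy or crop damage was rated on a 0–100 scale after 14 days.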

[3] = system: green foxtail (Setaria viridis, SETVI); assay: as above; details: Setaria viridis, post-emergence, 336 h, read-out: Post-emerge Herbicidal Activity SETVI; for pest or weed control at 63 g/ha: 63 g ai/ha; for pest or weed control at 250 g/ha: 250 g ai/ha
Summary of the method: as §1

[4] = system: johnsongrass (Sorghum halepense, SORHA); assay: as above; details: Sorghum halepense, post-emergence, 336 h, read-out: Post-emerge Herbicidal Activity SORHA; for pest or weed control at 63 g/ha: 63 g ai/ha; for pest or weed control at 250 g/ha: 250 g ai/ha
Summary of the method: as §1

[5] = system: large crabgrass (Digitaria sanguinalis, DIGSA); assay: as above; details: Digitaria sanguinalis, post-emergence, 336 h, read-out: Post-emerge Herbicidal Activity DIGSA; for pest or weed control at 63 g/ha: 63 g ai/ha; for pest or weed control at 250 g/ha: 250 g ai/ha
Summary of the method: as §1

[6] = system: lambsquarters (Chenopodium album, CHEAL); assay: Pre-emerge test, greenhouse herbicide activity screening; details: pre-emerge; for Pre-emerge Herbicidal Activity CHEAL (phytotoxicity rating, scale 0-100): rated 14 days after application, 0 = no damage, 100 = complete death
Summary of the method: (§2)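 Fourteen days after spraying, crop and weed injury was graded visually from 0, no effect, to 100, every plant dead. Test substances were dissolved in acetone and applied at 15–1000 g ai/ha with a flat-fan nozzle. Application was either pre-emergence, one day after sowing, or post-emergence at the 2–3 leaf stage.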

[7] = system: sicklepod (Cassia obtusifolia, CASOB); assay: as above; details: pre-emerge; for Pre-emerge Herbicidal Activity CASOB (phytotoxicity rating, scale 0-100): rated 14 days after application, 0 = no damage, 100 = complete death
Summary of the method: as §2

[8] = system: green foxtail (Setaria viridis, SETVI); assay: as above; details: pre-emerge; for Pre-emerge Herbicidal Activity SETVI (phytotoxicity rating, scale 0-100): rated 14 days after application, 0 = no damage, 100 = complete death
Summary of the method: as §2

[9] = system: velvetleaf (Abutilon theophrasti, ABUTH); assay: as above; details: pre-emerge; for Pre-emerge Herbicidal Activity ABUTH (phytotoxicity rating, scale 0-100): rated 14 days after application, 0 = no damage, 100 = complete death
Summary of the method: as §2

[10] = system: barnyardgrass (Echinochloa crus-galli, ECHCG); assay: as above; details: pre-emerge; for Pre-emerge Herbicidal Activity ECHCG (phytotoxicity rating, scale 0-100): rated 14 days after application, 0 = no damage, 100 = complete death
Summary of the method: as §2

[11] = system: ivyleaf morningglory (Ipomoea hederacea, IPOHE); assay: as above; details: pre-emerge; for Pre-emerge Herbicidal Activity IPOHE (phytotoxicity rating, scale 0-100): rated 14 days after application, 0 = no damage, 100 = complete death
Summary of the method: as §2

[12] = system: johnsongrass (Sorghum halepense, SORHA); assay: as above; details: pre-emerge, rated 14 days after application, 0 = no damage, 100 = complete death
Summary of the method: as §2

[13] = system: large crabgrass (Digitaria sanguinalis, DIGSA); assay: as above; details: pre-emerge; for Pre-emerge Herbicidal Activity DIGSA (phytotoxicity rating, scale 0-100): rated 14 days after application, 0 = no damage, 100 = complete death
Summary of the method: as §2

[14] = system: lambsquarters (Chenopodium album, CHEAL); assay: Post-emerge test, greenhouse herbicide activity screening; details: Chenopodium album, post-emergence, 336 h, post-emerge, phytotoxicity rating 0-100 at 14 days after application, read-out: Post-emerge Herbicidal Activity CHEAL
Summary of the method: as §1

[15] = phytotoxicity rating 0-100 (0 no damage, 100 complete death), 14 days after application
[16] = post-emerge, phytotoxicity rating 0-100 at 14 days after application

Cn1c(C(F)(F)F)cc(=O)n(-c2c(F)cc(Cl)c(OC(F)F)c2N)c1=O [Compound 1-38, 3-(2-amino-4-chloro-3-difluoromethoxy-6-fluorophenyl)-1-methyl-6-trifluoromethyl-2,4(1H, 3H)-pyrimidinedione]
Pre-emerge Herbicidal Activity AMARE (phytotoxicity rating, scale 0-100) ([1]; 63 g ai/ha): 100
Pre-emerge Herbicidal Activity AMARE (phytotoxicity rating, scale 0-100) ([1]; 250 g ai/ha): 100
pest or weed control at 63 g/ha [2, 15]: 50%
pest or weed control at 250 g/ha [2, 15]: 90%
pest or weed control at 63 g/ha [3, 15]: 10%
pest or weed control at 250 g/ha [3, 15]: 80%
pest or weed control at 63 g/ha [4, 15]: 0%
pest or weed control at 250 g/ha [4, 15]: 80%
pest or weed control at 63 g/ha [5, 15]: 10%
pest or weed control at 250 g/ha [5, 15]: 80%
Pre-emerge Herbicidal Activity CHEAL (phytotoxicity rating, scale 0-100) ([6]; 63 g ai/ha): 100
Pre-emerge Herbicidal Activity CHEAL (phytotoxicity rating, scale 0-100) ([6]; 250 g ai/ha): 100
Pre-emerge Herbicidal Activity CASOB (phytotoxicity rating, scale 0-100) ([7]; 63 g ai/ha): 100
Pre-emerge Herbicidal Activity CASOB (phytotoxicity rating, scale 0-100) ([7]; 250 g ai/ha): 100
Pre-emerge Herbicidal Activity SETVI (phytotoxicity rating, scale 0-100) ([8]; 63 g ai/ha): 100
Pre-emerge Herbicidal Activity SETVI (phytotoxicity rating, scale 0-100) ([8]; 250 g ai/ha): 100
Pre-emerge Herbicidal Activity ABUTH (phytotoxicity rating, scale 0-100) ([9]; 63 g ai/ha): 100
Pre-emerge Herbicidal Activity ABUTH (phytotoxicity rating, scale 0-100) ([9]; 250 g ai/ha): 100
Pre-emerge Herbicidal Activity ECHCG (phytotoxicity rating, scale 0-100) ([10]; 63 g ai/ha): 95
Pre-emerge Herbicidal Activity ECHCG (phytotoxicity rating, scale 0-100) ([10]; 250 g ai/ha): 100
Pre-emerge Herbicidal Activity IPOHE (phytotoxicity rating, scale 0-100) ([11]; 63 g ai/ha): 100
Pre-emerge Herbicidal Activity IPOHE (phytotoxicity rating, scale 0-100) ([11]; 250 g ai/ha): 100
Pre-emerge Herbicidal Activity SORHA (phytotoxicity rating, scale 0-100) ([12]; 63 g ai/ha): 90
Pre-emerge Herbicidal Activity SORHA (phytotoxicity rating, scale 0-100) ([12]; 250 g ai/ha): 100
Pre-emerge Herbicidal Activity DIGSA (phytotoxicity rating, scale 0-100) ([13]; 63 g ai/ha): 100
Pre-emerge Herbicidal Activity DIGSA (phytotoxicity rating, scale 0-100) ([13]; 250 g ai/ha): 100

Cc1nn(-c2c(F)cc(Cl)cc2NC(=O)c2ccc3ccccc3c2)c(=O)n1C(F)F [Compound 6-24]
pest or weed control at 63 g/ha ([1]; Amaranthus retroflexus, pre-emergence, 336 h, rate 63 g ai/ha, phytotoxicity rating 0-100 at 14 days after application, read-out: Pre-emerge Herbicidal Activity AMARE): 20%
pest or weed control at 250 g/ha ([1]; Amaranthus retroflexus, pre-emergence, 336 h, rate 250 g ai/ha, phytotoxicity rating 0-100 at 14 days after application, read-out: Pre-emerge Herbicidal Activity AMARE): 100%
pest or weed control at 63 g/ha ([14]; 63 g ai/ha): 30%
pest or weed control at 250 g/ha ([14]; 250 g ai/ha): 90%
pest or weed control at 63 g/ha [2, 16]: 0%
pest or weed control at 250 g/ha [2, 16]: 10%
pest or weed control at 63 g/ha [3, 16]: 0%
pest or weed control at 250 g/ha [3, 16]: 40%
pest or weed control at 63 g/ha [4, 16]: 0%
pest or weed control at 250 g/ha [4, 16]: 0%
pest or weed control at 63 g/ha [5, 16]: 0%
pest or weed control at 250 g/ha [5, 16]: 0%
pest or weed control at 63 g/ha ([6]; Chenopodium album, pre-emergence, 336 h, rate 63 g ai/ha, phytotoxicity rating 0-100 at 14 days after application, read-out: Pre-emerge Herbicidal Activity CHEAL): 30%
pest or weed control at 250 g/ha ([6]; Chenopodium album, pre-emergence, 336 h, rate 250 g ai/ha, phytotoxicity rating 0-100 at 14 days after application, read-out: Pre-emerge Herbicidal Activity CHEAL): 90%
pest or weed control at 63 g/ha ([7]; Senna obtusifolia, pre-emergence, 336 h, rate 63 g ai/ha, phytotoxicity rating 0-100 at 14 days after application, read-out: Pre-emerge Herbicidal Activity CASOB): 0%
pest or weed control at 250 g/ha ([7]; Senna obtusifolia, pre-emergence, 336 h, rate 250 g ai/ha, phytotoxicity rating 0-100 at 14 days after application, read-out: Pre-emerge Herbicidal Activity CASOB): 0%
pest or weed control at 63 g/ha ([8]; Setaria viridis, pre-emergence, 336 h, rate 63 g ai/ha, phytotoxicity rating 0-100 at 14 days after application, read-out: Pre-emerge Herbicidal Activity SETVI): 0%
pest or weed control at 250 g/ha ([8]; Setaria viridis, pre-emergence, 336 h, rate 250 g ai/ha, phytotoxicity rating 0-100 at 14 days after application, read-out: Pre-emerge Herbicidal Activity SETVI): 40%
pest or weed control at 63 g/ha ([9]; Abutilon theophrasti, pre-emergence, 336 h, rate 63 g ai/ha, phytotoxicity rating 0-100 at 14 days after application, read-out: Pre-emerge Herbicidal Activity ABUTH): 0%
pest or weed control at 250 g/ha ([9]; Abutilon theophrasti, pre-emergence, 336 h, rate 250 g ai/ha, phytotoxicity rating 0-100 at 14 days after application, read-out: Pre-emerge Herbicidal Activity ABUTH): 70%
pest or weed control at 63 g/ha ([10]; Echinochloa crus-galli, pre-emergence, 336 h, rate 63 g ai/ha, phytotoxicity rating 0-100 at 14 days after application, read-out: Pre-emerge Herbicidal Activity ECHCG): 0%
pest or weed control at 250 g/ha ([10]; Echinochloa crus-galli, pre-emergence, 336 h, rate 250 g ai/ha, phytotoxicity rating 0-100 at 14 days after application, read-out: Pre-emerge Herbicidal Activity ECHCG): 0%
pest or weed control at 63 g/ha ([11]; Ipomoea, pre-emergence, 336 h, rate 63 g ai/ha, phytotoxicity rating 0-100 at 14 days after application, read-out: Pre-emerge Herbicidal Activity IPOHE): 0%
pest or weed control at 250 g/ha ([11]; Ipomoea, pre-emergence, 336 h, rate 250 g ai/ha, phytotoxicity rating 0-100 at 14 days after application, read-out: Pre-emerge Herbicidal Activity IPOHE): 0%
pest or weed control at 63 g/ha ([13]; Digitaria sanguinalis, pre-emergence, 336 h, rate 63 g ai/ha, phytotoxicity rating 0-100 at 14 days after application, read-out: Pre-emerge Herbicidal Activity DIGSA): 0%
pest or weed control at 250 g/ha ([13]; Digitaria sanguinalis, pre-emergence, 336 h, rate 250 g ai/ha, phytotoxicity rating 0-100 at 14 days after application, read-out: Pre-emerge Herbicidal Activity DIGSA): 20%

— patent US6355799B1, “Substituted benzene compounds, process for their preparation, and herbicidal and defoliant compositions containing them” (ISK Americas Incorporated, priority 1997, dated 2002)
